Tests used:
P388 [1] = assay: Antitumor activity against mouse P388 cells allografted in DBA/2 mouse assessed as survival rate at 48 mg/kg relative to control; type: functional
[2] = Cytotoxicity against human Hep2 cells assessed as growth inhibition by microtiter method; type: functional; conditions: HEp-2, read-out: ED50 (the source's name)
W256 = assay: Antitumor activity against rat Walker 256 cells allografted in Sprague-Dawley rat assessed as survival rate at 2.5 mg/kg relative to control; type: functional
P388 [3] = assay: Antitumor activity against mouse P388 cells allografted in DBA/2 mouse assessed as survival rate at 25 mg/kg relative to control; type: functional
P388 [4] = assay: Antitumor activity against mouse P388 cells allografted in DBA/2 mouse assessed as survival rate at 10 mg/kg relative to control; type: functional
P388 [5] = assay: Antitumor activity against mouse P388 cells allografted in DBA/2 mouse assessed as survival rate at 4 mg/kg relative to control; type: functional
[6] = Toxicity in Sprague-Dawley rat allografted with rat Walker 256 cells assessed as mortality after 4 days; type: organism-based; conditions: read-out: MNTD
[7] = Toxicity in DBA/2 mouse allografted with mouse P388 cells assessed as mortality after 4 days; type: organism-based; conditions: read-out: MNTD
P388 [8] = assay: Antitumor activity against mouse P388 cells allografted in DBA/2 mouse assessed as survival rate at 16.8 mg/kg relative to control; type: functional

Row | SMILES | EC50 [2] [µg/mL] | T/C (W256) [%] | T/C (P388 [3]) [%] | further results
1 | C[C@@H]1C[C@H]2OC(=O)[C@@H](C)[C@H]2[C@H](O)[C@]2(C)C(=O)C=C[C@@H]12 | 0.81 | 207 | – | T/C (P388 [1]): 138%
2 | C[C@@H]1C[C@H]2OC(=O)C(CN(C)C)[C@H]2[C@H](O)[C@]2(C)C(=O)C=C[C@@H]12 (some centres undefined) | 0.6 | – | 130 | –
3 | C[C@@H]1C[C@@H](O)[C@@H]([C@H]2CN(C)CCN(C)C2=O)[C@H](O)[C@]2(C)C(=O)C=C[C@@H]12 | 1.87 | 170 | 126 | –
4 | CC(=O)O[C@H]1[C@H](C2CN(C)CCN(C)C2=O)[C@H](O)C[C@@H](C)[C@@H]2C=CC(=O)[C@]21C (some centres undefined) | 4.96 | – | 100 | –
5 | CC(=O)O[C@H]1[C@H](C2CN(C)CCN(C)C2=O)[C@H](OC(=O)/C=C/c2ccccc2)C[C@@H](C)[C@@H]2C=CC(=O)[C@]21C (some centres undefined) | 0.84 | – | 102 | –
6 | C[C@@H]1C[C@@H](OC(=O)/C=C/c2ccccc2)[C@@H](C2CN(C)CCN(C)C2=O)[C@H](O)[C@]2(C)C(=O)C=C[C@@H]12 (some centres undefined) | 2.89 | – | – | T/C (P388 [4]): 123%
7 | C[C@@H]1C[C@@H](OC(=O)/C=C/c2ccccc2)[C@@H](C2CN(C)CCN(C)C2=O)[C@H](OC(=O)/C=C/c2ccccc2)[C@]2(C)C(=O)C=C[C@@H]12 (some centres undefined) | 0.75 | 288 | – | T/C (P388 [4]): 100%
8 | C[C@@H]1C[C@H]2OC(=O)C(CN(C)C)[C@H]2[C@H](O)[C@]2(C)C(=O)CC(N(C)C)[C@@H]12 (some centres undefined) | 0.85 | 136 | – | T/C (P388 [4]): 102%
9 | C=C1C(=O)O[C@@H]2C[C@@H](C)[C@@H]3C=CC(=O)[C@@]3(C)[C@@H](OC(=O)/C=C/c3ccccc3)[C@H]12 | 0.04 | 157 | – | T/C (P388 [5]): 123%
10 | C[C@@H]1C[C@H]2OC(=O)C(CN(C)C)[C@H]2[C@H](O)[C@]2(C)C(O)CC[C@@H]12 (some centres undefined) | 3.69 | – | – | –
11 | C=C1C(=O)O[C@@H]2C[C@@H](C)[C@@H]3C=CC(=O)[C@@]3(C)[C@@H](OC(C)=O)[C@H]12 [ANGUSTIBALIN] | 0.29 | – | 78 | –
12 | O=c1[nH]cc(F)c(=O)[nH]1 [FLUOROURACIL] | – | – | 186 | –
13 | C=C1C(=O)O[C@@H]2C[C@@H](C)[C@@H]3C=CC(=O)[C@@]3(C)[C@@H](O)[C@H]12 [HELENALIN] | 0.08 | 316 | – | MTD at 96 h [6]: 2.5 mg/kg; MTD at 96 h [7]: 16.8 mg/kg; T/C (P388 [8]): 127%
14 | N[C@@H](Cc1ccc(N(CCCl)CCCl)cc1)C(=O)O [MELPHALAN] | – | 317 | 168 | –

— ChEMBL document CHEMBL3244430, “Antitumor agents. 31. Helenalin sym-dimethylethylenediamine reaction products and related derivatives” (J Med Chem, 1978)
